Experiments:
[1] = tested on: KB epidermoid nasopharynx; test: Cytotoxicity, KB growth; type: cell-based, human; settings: concentration inhibiting 50% of cell growth
Excerpt: (§1) CYTOTOXlCITY OF POLY(PHENOLIC)SULFONATES AND THEIR SODIUM SALTS IN L1210 LYMPHOID LEUKEMIA CELLS Fei Wang, Amy E. Warren, Cheryl R. Barnes and Iris H. Hall* Division of Medicinal Chemistry and Natural Products University of North Carolina Chapel Hill, N.C. […] Because ofthese properties it was surmised that these poly(phenolic)sulfonated compounds may have antineoplastic activity. METHODS Source of Compounds Test compounds were supplied by GeneLabs, Inc. [Redwood City, CA [Table 1]. Radioisotopes were obtained from New England Nuclear [Dupont, Boston, MA]. Substrates and co-factors were purchased om Sigma Chemical Co., [St Louis, MO]. Pentosan sulfate and other antineoplastic standards were obtained from Sigma Chemical Co. Tumor lines were obtained from American Type Culture Collection [Rockville, MD]. […] Cell numbers were determined by the trypan blue exclusion technique. Solid tumor cytotoxicity was determined by Leibovitz et al. 's method utilizing crystal violeeOH and read at 562 nm (Molecular Devices). Values for cytotoxicity were expressed as EDs0 g/ml, i.e. the concentration ofthe compound inhibiting 50% ofcell growth. […] Incorporation of 4C- formate (53.0 mCi/mmol) into pyrimidines was determined by the method of Christopherson et al.[13]. […] DNA polymerase Ot activity was determined in cytoplasmic extracts isolated by Eichler et aL's method. […] Messenger-, ribosomal- and transfer-RNA polymerase enzymes were isolated with different concentrations of ammonium sulfate; individual RNA polymerase activities were determined using 3H -UTP 16,17]. Ribonucleoside reductase activity was measured using 4C -CDP with dithioerythritol. […]

DNA polymerase α = target: DNA polymerase α; set-up: method as in ref 40; settings: non-competitively ref 40; read-out: inhibition of DNA polymerase α activity; cited from earlier work
[2] = tested on: DC-3F/9-OH-E (resistant 9-hydroellipticine subline); set-up: method as in ref 41; settings: cited from earlier work
DNA polymerase = target: DNA polymerase; set-up: method as in ref 40; settings: non-competitively; enzyme name lost ref 40; read-out: inhibition of second DNA polymerase activity; cited from earlier work
[3] = tested on: Rauscher leukemic virus, Moloney murine sarcoma virus and avian myeloblastosis reverse transcriptase; settings: cited from earlier work
SV40 replication = tested on: SV40 replication; set-up: method as in ref 38; settings: in HeLa cells ref 38; cited from earlier work
HeLa cells = tested on: HeLa cells; set-up: method as in ref 38; settings: HeLa cells ref 38; cited from earlier work
DC-3F = tested on: DC-3F; set-up: method as in ref 41; settings: cited from earlier work
[4] = tested on: colorectal adenocarcinoma SW480; test: Cytotoxicity, SW480 growth; type: cell-based, human
Excerpt: as §1, with “MD]. 147 Vol. 5, No. 3, 1998 Cytotoxicity ofSodium Poly(Phenolic)Sulfonates in L1210 Lymphoid Leukemia Cells Table 1 Structures of Poly(phenolic)sulfonate Compounds O2R" n Compound R' R" n MW # G1-2041 H OH 8 1489.46 G1-2029 H OH 6 1117.09 G1-2030 H OH 4 744.73 GI-2021 CH3 ONa 8 1777.5 G1-2057 CH3 ONa 4 888.75 GI-2158 CH3 ONa 6 1333.13 GI-2063 OCH3 ONa 8 2001.65 G1-2042 OAc ONa 8 2017.73 Cytotoxicity Poly(phenolic)sulfonates were tested for cytotoxic activity by homogenizing drug in 0.05% Tween 80/H20 to give a mg/ml stock concentration. These solutions were sterilized by passing them through an acrodisc ([…]). The following cell lines were maintained by literature techniques: murine L1210 lymphoid leukemia, P-388 lymphocytic leukemia, rat UMR 106 osteosarcoma, human Tmolt3 acute lymphoblastic T cell leukemia, HUT-8 lymphoma, HeLa-S suspended cervical carcinoma, HeLa solid cervical carcinoma, KB epidermoid nasopharynx, A431 epidermoid carcinoma, colorectal adenocarcinoma SW480, HCT-8 ileocecal adenocarcinoma, lung bronchogenic MB-9812, A549 lung carcinoma, and glioma HS683.” for “MD].”

[5] = tested on: human Tmolt3 acute lymphoblastic T cell leukemia; test: Cytotoxicity, Tmolt3 growth; type: cell-based; settings: concentration inhibiting 50% of cell growth
Excerpt: as §1, with “MO].” for “MO]. Pentosan sulfate and other antineoplastic standards were obtained from Sigma Chemical Co. Tumor lines were obtained from American Type Culture Collection [Rockville, MD].”, “16,17].” for “16,17]. Ribonucleoside reductase activity was measured using 4C -CDP with dithioerythritol.”

[6] = tested on: murine L1210 lymphoid leukemia; type: cell-based, mouse; settings: concentration inhibiting 50% of cell growth
Excerpt: CYTOTOXlCITY OF POLY(PHENOLIC)SULFONATES AND THEIR SODIUM SALTS IN L1210 LYMPHOID LEUKEMIA CELLS Fei Wang, Amy E. Warren, Cheryl R. Barnes and Iris H. Hall* Division of Medicinal Chemistry and Natural Products University of North Carolina Chapel Hill, N.C. […] Because ofthese properties it was surmised that these poly(phenolic)sulfonated compounds may have antineoplastic activity. METHODS Source of Compounds Test compounds were supplied by GeneLabs, Inc. [Redwood City, CA [Table 1]. Radioisotopes were obtained from New England Nuclear [Dupont, Boston, MA]. Substrates and co-factors were purchased om Sigma Chemical Co., [St Louis, MO]. Pentosan sulfate and other antineoplastic standards were obtained from Sigma Chemical Co. Tumor lines were obtained from American Type Culture Collection [Rockville, MD]. 147 Vol. 5, No. 3, 1998 Cytotoxicity ofSodium Poly(Phenolic)Sulfonates in L1210 Lymphoid Leukemia Cells Table 1 Structures of Poly(phenolic)sulfonate Compounds O2R" n Compound R' R" n MW # G1-2041 H OH 8 1489.46 G1-2029 H OH 6 1117.09 G1-2030 H OH 4 744.73 GI-2021 CH3 ONa 8 1777.5 G1-2057 CH3 ONa 4 888.75 GI-2158 CH3 ONa 6 1333.13 GI-2063 OCH3 ONa 8 2001.65 G1-2042 OAc ONa 8 2017.73 Cytotoxicity Poly(phenolic)sulfonates were tested for cytotoxic activity by homogenizing drug in 0.05% Tween 80/H20 to give a mg/ml stock concentration. These solutions were sterilized by passing them through an acrodisc ([…]). The following cell lines were maintained by literature techniques: murine L1210 lymphoid leukemia, P-388 lymphocytic leukemia, rat UMR 106 osteosarcoma, human Tmolt3 acute lymphoblastic T cell leukemia, HUT-8 lymphoma, HeLa-S suspended cervical carcinoma, HeLa solid cervical carcinoma, KB epidermoid nasopharynx, A431 epidermoid carcinoma, colorectal adenocarcinoma SW480, HCT-8 ileocecal adenocarcinoma, lung bronchogenic MB-9812, A549 lung carcinoma, and glioma HS683. Geran et al.'s protocol was used to assess the cytotoxicity of the compounds and standards in each cell line. Cell numbers were determined by the trypan blue exclusion technique. Solid tumor cytotoxicity was determined by Leibovitz et al. 's method utilizing crystal violeeOH and read at 562 nm (Molecular Devices). Values for cytotoxicity were expressed as EDs0 g/ml, i.e. the concentration ofthe compound inhibiting 50% ofcell growth. A value of less than 4 µg/ml was required for significant activity ofgrowth inhibition. Incorporation Studies Incorporation of labeled precursors into 3H-DNA, 3H -RNA and 3H -protein for 10 L1210 cells was obtained. The concentration response for inhibition of DNA, RNA and protein synthesis of the compounds at 25, 50 and 100 l.tM was determined for 60 min incubations. Incorporation of 14C -glycine (53.0 mCi/mmol) into purines was obtained by the method of Cadman et al.[12]. Incorporation of 4C- formate (53.0 mCi/mmol) into pyrimidines was determined by the method of Christopherson et al.[13]. Enzyme Assays Inhibition of various enzyme activities was performed by first preparing the appropriate L1210 cell homogenates or subcellular fractions, then adding the drug to be tested during the enzyme assay. For the concentration response studies, inhibition of enzyme activity was determined at 25, 50 and 100 l.tM of compounds G1-2021, G1-2029, GI-2041 and G1-2063 after 60 min incubations. DNA polymerase Ot activity was determined in cytoplasmic extracts isolated by Eichler et aL's method. The DNA polymerase assay was described by Sedwick et al.[15] using 3H-TTP. Messenger-, ribosomal- and transfer-RNA polymerase enzymes were isolated with different concentrations of ammonium sulfate; individual RNA polymerase activities were determined using 3H -UTP 16,17]. Ribonucleoside reductase activity was measured using 4C -CDP with dithioerythritol. The deoxyribonucleotides 4C -dCDP were separated from the ribonucleotides by TLC on PEI plates. […]

[7] = tested on: lung bronchogenic MB-9812; test: Cytotoxicity, MB-9812 growth; type: cell-based, human
Excerpt: as §1, with “MO].” for “MO]. Pentosan sulfate and other antineoplastic standards were obtained from Sigma Chemical Co. Tumor lines were obtained from American Type Culture Collection [Rockville, MD].”, “16,17].” for “16,17]. Ribonucleoside reductase activity was measured using 4C -CDP with dithioerythritol.”

[8] = tested on: HeLa-S suspended cervical carcinoma; test: Cytotoxicity, HeLa-S3 growth; type: cell-based, human; settings: concentration inhibiting 50% of cell growth
Excerpt: as §1, with “MO].” for “MO]. Pentosan sulfate and other antineoplastic standards were obtained from Sigma Chemical Co. Tumor lines were obtained from American Type Culture Collection [Rockville, MD].”, “16,17].” for “16,17]. Ribonucleoside reductase activity was measured using 4C -CDP with dithioerythritol.”

COc1c2cc(S(=O)(=O)[O-])cc1Cc1cc(S(=O)(=O)[O-])cc(c1OC)Cc1cc(S(=O)(=O)[O-])cc(c1OC)Cc1cc(S(=O)(=O)[O-])cc(c1OC)Cc1cc(S(=O)(=O)[O-])cc(c1OC)Cc1cc(S(=O)(=O)[O-])cc(c1OC)C2.[Na+].[Na+].[Na+].[Na+].[Na+].[Na+] [GI-2158]
ED50 [1]: 3.24 µg/mL

Cc1ccc(C(=O)Nc2ccc(S(=O)(=O)O)c3cc(S(=O)(=O)O)cc(S(=O)(=O)O)c23)cc1NC(=O)c1cccc(NC(=O)Nc2cccc(C(=O)Nc3cc(C(=O)Nc4ccc(S(=O)(=O)O)c5cc(S(=O)(=O)O)cc(S(=O)(=O)O)c45)ccc3C)c2)c1 [suramin]
IC50 (DNA polymerase α): 8 µM | ED50 [2]: 203 µM | IC50 (DNA polymerase): 36 µM | concentration inhibiting reverse transcriptase activities [3]: 0.1 µg/mL | concentration required to inhibit SV40 replication (SV40 replication): 40 µM | concentration required to cause death (HeLa cells): 250 µg/mL | ED50 (DC-3F): 31 µM

O=S(=O)(O)c1cc2c(O)c(c1)Cc1cc(S(=O)(=O)O)cc(c1O)Cc1cc(S(=O)(=O)O)cc(c1O)Cc1cc(S(=O)(=O)O)cc(c1O)C2 [GI-2030]
activity, in words [4]: active | ED50 ([4]; concentration inhibiting 50% of cell growth): less than 2 μg/ml

pentosan sulfate [reference compound]
ED50 [5]: < 3 µg/mL | ED50 [6]: < 3 µg/mL | growth suppression, in words [7]: suppressed moderately | ED50 [8]: < 3 µg/mL

Source: paper PMC2365111, “Cytotoxicity of Poly(Phenolic)Sulfonates and Their Sodium Salts in L1210 Lymphoid Leukemia Cells” (Metal-Based Drugs, 1998)
